Key:
Assay type in all cases: in vivo, mouse
FSH = assay: Plasma FSH after IL-18 administration; details: C57B/6 mice, 1.5 μg IL-18 intravenously, 1 hour after administration; FIG. 13B
Procedure: (§1) 1.5 μg of IL-18 prepared by genetic recombination technology was intravenously injected to C57B/6 mice, and thereafter ACTH, FSH and LH levels in blood were examined. […] FIGS. 13B and 13C show FSH and LH levels in plasma collected from mice 1 hour after IL-18 administration. It was shown that the concentrations of FSH and LH in plasma rose with the administration of IL-18.

ACTH = assay: Blood ACTH after IL-18 administration; details: C57B/6 mice, 1.5 μg IL-18 intravenously; FIG. 13A
Procedure: as §1

LH = assay: Plasma LH after IL-18 administration; details: C57B/6 mice, 1.5 μg IL-18 intravenously, 1 hour after administration; FIG. 13C
Procedure: as §1

IL-18: IL-18 prepared by genetic recombination technology
rose: concentration of FSH in plasma (FSH) | blood ACTH concentration (ACTH) | concentration of LH in plasma (LH)

Source: patent publication US20090004683A1, “Indicator Agent for Noninflammatory Stress Response and Use Thereof” (priority 2004, published 2009)
